Source: article PMC6678728, “Methylene Blue Blocks and Reverses the Inhibitory Effect of Tau on PMCA Function” (International Journal of Molecular Sciences, 2019)

Biological target: T1, purified pig brain PMCA (brainPMCA)
T1 construct: gene ATP2B1; native, purified from pig brain synaptosomal plasma membrane vesicles, delipidated, reconstituted in PS or PC
Test: quenching of intrinsic Trp fluorescence, Stern-Volmer
Assay type: binding, Sus scrofa
Conditions: reconstituted in PS, no tau; pH 7.4, 25 °C, 100 mM KCl, 2 mM MgCl2, 3.16 µM free Ca2+, 1 mM ATP; unreliable (extrapolated: titrated only up to 10 µM MB)
Description: quenching of intrinsic Trp fluorescence, Stern-Volmer on purified pig brain PMCA (brainPMCA)

Kd: 52.6 ± 2.5 µM
Compound: CN(C)c1ccc2nc3ccc(=[N+](C)C)cc-3sc2c1 [Methylene blue]
